Results from patent US20150258059A1, “ANTIMICROBIAL AND RADIOPROTECTIVE COMPOUNDS” (BioDiem, Ltd, priority 2001, published 2015).
≈ marks a conversion by molar mass, not a printed value. Like-named read-outs stand apart in the source and are kept apart here.

Legend:
[1] = test system: Staphylococcus aureus ATCC 29213; test: NCCLS broth microdilution MIC/MBC; type: cell-based; conditions: for MIC: Staphylococcus aureus, ATCC29213, read-out: MIC
[2] = test system: Proteus vulgaris RMIT; test: NCCLS broth microdilution MIC/MBC; type: cell-based; conditions: for MIC: Proteus vulgaris, read-out: MIC
[3] = test system: Escherichia coli ATCC 25922; test: NCCLS broth microdilution MIC/MBC; type: cell-based; conditions: for MIC: Escherichia coli, ATCC25922, read-out: MIC
[4] = test system: Pseudomonas aeruginosa ATCC 27853; test: NCCLS broth microdilution MIC/MBC; type: cell-based; conditions: for MIC: Pseudomonas aeruginosa, ATCC27853, read-out: MIC
[5] = test system: Serratia marcescens RMIT; test: NCCLS broth microdilution MIC/MBC; type: cell-based; conditions: for MIC: Serratia marcescens, read-out: MIC
[6] = test system: Mycobact tub. H.37RV; test: Anti-TB effect, serial double dilution in liquid medium; type: cell-based, M tuberculosis; conditions: 10-14 days incubation at 37° C.; read-out: Minimal Inhibitory Concentration
[7] = test system: Conditional pathogenic enterobacteria gram-negative aerobic bacilli; type: cell-based; also: key: + sensitive strains; + moderately sensitive strains; − stable strains
[8] = test system: Pseudomonas aeruginosa B-601; test: Sensitivity of strains: suppression of growth; type: cell-based; conditions: Compound (1) 1.0%; antibiotics disc method
[9] = test system: Escherichia coli M-17; test: Sensitivity of strains: suppression of growth; type: cell-based; conditions: Compound (1) 1.0%; antibiotics disc method
[10] = test system: Escherichia coli B-683; test: Sensitivity of strains: suppression of growth; type: cell-based; conditions: Compound (1) 1.0%; antibiotics disc method
[11] = test system: Escherichia coli B-65; test: Sensitivity of strains: suppression of growth; type: cell-based; conditions: Compound (1) 1.0%; antibiotics disc method
[12] = test system: Enterobacter aerogenes B-679; test: Sensitivity of strains: suppression of growth; type: cell-based; conditions: Compound (1) 1.0%; antibiotics disc method
[13] = test system: Enterobacter aerogenes B-687; test: Sensitivity of strains: suppression of growth; type: cell-based; conditions: Compound (1) 1.0%; antibiotics disc method
[14] = test system: Citrobacter diversus B-678; test: Sensitivity of strains: suppression of growth; type: cell-based; conditions: Compound (1) 1.0%; antibiotics disc method
[15] = test system: Shigella flexneri M-2A6907; test: Sensitivity of strains: suppression of growth; type: cell-based; conditions: Compound (1) 1.0%; antibiotics disc method
[16] = test system: Shigella sonnei B-720; test: Sensitivity of strains: suppression of growth; type: cell-based; conditions: Compound (1) 1.0%; antibiotics disc method
[17] = test system: Salmonella typhimurium M-727; test: Sensitivity of strains: suppression of growth; type: cell-based; conditions: Compound (1) 1.0%; antibiotics disc method
[18] = test system: Salmonella paratyphi M-16469; test: Sensitivity of strains: suppression of growth; type: cell-based; conditions: Compound (1) 1.0%; antibiotics disc method
[19] = test system: Acinetobacter B-681; test: Sensitivity of strains: suppression of growth; type: cell-based; conditions: Compound (1) 1.0%; antibiotics disc method
[20] = test system: Acinetobacter B-676; test: Sensitivity of strains: suppression of growth; type: cell-based; conditions: Compound (1) 1.0%; antibiotics disc method
[21] = test system: Acinetobacter B-677; test: Sensitivity of strains: suppression of growth; type: cell-based; conditions: Compound (1) 1.0%; antibiotics disc method
[22] = test system: Alkaligenes sp. B-689; test: Sensitivity of strains: suppression of growth; type: cell-based; conditions: Compound (1) 1.0%; antibiotics disc method
[23] = test system: Alkaligenes sp. B-667; test: Sensitivity of strains: suppression of growth; type: cell-based; conditions: Compound (1) 1.0%; antibiotics disc method
[24] = test system: Yersinia pseudotuberculosis; type: cell-based; conditions: Compound (1) 1.0%; antibiotics disc method
[25] = test system: Klebsiella pneumoniae M-A21; test: Sensitivity of strains: suppression of growth; type: cell-based; conditions: Compound (1) 1.0%; antibiotics disc method
[26] = test system: Klebsiella pneumoniae M-248; test: Sensitivity of strains: suppression of growth; type: cell-based; conditions: Compound (1) 1.0%; antibiotics disc method
[27] = test system: Corynebacterium diphtheriae B-670; test: Sensitivity of strains: suppression of growth; type: cell-based; conditions: Compound (1) 1.0%; antibiotics disc method
[28] = test system: Neisseria meningitidis M-6231; test: Sensitivity of strains: suppression of growth; type: cell-based; conditions: Compound (1) 1.0%; antibiotics disc method
[29] = test system: Neisseria meningitidis M-A72; test: Sensitivity of strains: suppression of growth; type: cell-based; conditions: Compound (1) 1.0%; antibiotics disc method
[30] = test system: Staphylococcus aureus M-12159; test: Sensitivity of strains: suppression of growth; type: cell-based; conditions: Compound (1) 1.0%; antibiotics disc method
[31] = test system: Staphylococcus aureus M-209; test: Sensitivity of strains: suppression of growth; type: cell-based; conditions: Compound (1) 1.0%; antibiotics disc method
[32] = test system: Staphylococcus aureus B-685; test: Sensitivity of strains: suppression of growth; type: cell-based; conditions: Compound (1) 1.0%; antibiotics disc method
[33] = test system: Staphylococcus aureus B-674; test: Sensitivity of strains: suppression of growth; type: cell-based; conditions: Compound (1) 1.0%; antibiotics disc method
[34] = test system: Staphylococci epidermidis D-513; test: Sensitivity of strains: suppression of growth; type: cell-based; conditions: Compound (1) 1.0%; antibiotics disc method
[35] = test system: Staphylococcus epidermidis BK-30; test: Sensitivity of strains: suppression of growth; type: cell-based; conditions: Compound (1) 1.0%; antibiotics disc method
[36] = test system: γ-hemolytic streptococcus B-672; test: Sensitivity of strains: suppression of growth; type: cell-based; conditions: Compound (1) 1.0%; antibiotics disc method
[37] = test system: β-hemolytic streptococcus B-624; test: Sensitivity of strains: suppression of growth; type: cell-based; conditions: Compound (1) 1.0%; antibiotics disc method

## [H]/N=C(\N/C(=N/[H])NCCCCCCNC(=N)NC(=N)Nc1ccc(Cl)cc1)Nc1ccc(Cl)cc1 [Chlorhexidine]
[1]; Table 9, 35° C., 24 hours
  MIC: 2 µg/mL (≈ 3.96 µM)
  MMC: 8 µg/mL
[1]; Table 17, 2 or 3 replicates
  MIC: 2 µg/mL (≈ 3.96 µM)
  MMC: 8 µg/mL
[2]; Table 9, 35° C., 24 hours
  MIC: 6 µg/mL (≈ 11.9 µM)
  MMC: 128 µg/mL
[2]; Table 17, 2 or 3 replicates
  MIC: 6 µg/mL (≈ 11.9 µM)
  MMC: 128 µg/mL
[3]; Table 9, 35° C., 24 hours
  MIC: 2 µg/mL (≈ 3.96 µM)
  MMC: 4 µg/mL
[3]; Table 17, 2 or 3 replicates
  MIC: 2 µg/mL (≈ 3.96 µM)
  MMC: 4 µg/mL
[4]; Table 9, 35° C., 24 hours
  MIC: 32 µg/mL (≈ 63.3 µM)
  MMC: 64 µg/mL
[4]; Table 17, 2 or 3 replicates
  MIC: 32 µg/mL (≈ 63.3 µM)
  MMC: 64 µg/mL
[5]; Table 9, 35° C., 24 hours
  MIC: 16 µg/mL (≈ 31.7 µM)
  MMC: 32 µg/mL
[5]; Table 17, 2 or 3 replicates
  MIC: 16 µg/mL (≈ 31.7 µM)
  MMC: 32 µg/mL

## CC[C@@H](CO)NCCN[C@@H](CC)CO [Ethambutol]
[6]
  MIC: 1 to 2.5 µg/mL (≈ 4.89 to 12.2 µM)

## NNC(=O)c1ccncc1 [Isoniazid]
[6]
  MIC: 0.02 to 0.1 µg/mL (≈ 0.146 to 0.729 µM)

## gentamycin [Antibiotic 3]
[7]
  Suppression of Growth (+/−): −
[8]
  Suppression of Growth (+/−): +
[9]
  Suppression of Growth (+/−): +
[10]
  Suppression of Growth (+/−): +
[11]
  Suppression of Growth (+/−): +
[12]
  Suppression of Growth (+/−): −
[13]
  Suppression of Growth (+/−): −
[14]
  Suppression of Growth (+/−): +
[15]
  Suppression of Growth (+/−): +
[16]
  Suppression of Growth (+/−): −
[17]
  Suppression of Growth (+/−): −
[18]
  Suppression of Growth (+/−): −
[19]
  Suppression of Growth (+/−): −
[20]
  Suppression of Growth (+/−): −
[21]
  Suppression of Growth (+/−): −
[22]
  Suppression of Growth (+/−): +
[23]
  Suppression of Growth (+/−): −
[24]
  Suppression of Growth (+/−): −
[25]
  Suppression of Growth (+/−): −
[26]
  Suppression of Growth (+/−): −
[27]
  Suppression of Growth (+/−): +
[28]
  Suppression of Growth (+/−): −
[29]
  Suppression of Growth (+/−): −
[30]
  Suppression of Growth (+/−): +
[31]
  Suppression of Growth (+/−): +
[32]
  Suppression of Growth (+/−): +
[33]
  Suppression of Growth (+/−): +
[34]
  Suppression of Growth (+/−): +
[35]
  Suppression of Growth (+/−): −
[36]
  Suppression of Growth (+/−): −
[37]
  Suppression of Growth (+/−): −
